According to patent publication US5534517A, “(Aryl(alkyl)carbonyl)-heterocyclic compounds and their use in the treatment of anxiety and depression” (Adir Et Compagnie, priority 1993, dated 1996):
Where two headings read alike, the source gives them in different places.

What was measured:
[1] = biological target: T1, 5-HT2 serotoninergic receptors (Rattus norvegicus, UniProt P14842); test: in-vitro affinity for 5-HT2 serotoninergic receptors, by measuring the displacement of aminoiodoketanserin, on rat frontal cortex preparations; details: read-out: IC50 (concentration inhibiting binding of the labelled ligand by 50%) (converted)
T1 construct: on rat frontal cortex preparations; from tissue; host or cells: rat frontal cortex
T1 sequence (P14842 whole entry): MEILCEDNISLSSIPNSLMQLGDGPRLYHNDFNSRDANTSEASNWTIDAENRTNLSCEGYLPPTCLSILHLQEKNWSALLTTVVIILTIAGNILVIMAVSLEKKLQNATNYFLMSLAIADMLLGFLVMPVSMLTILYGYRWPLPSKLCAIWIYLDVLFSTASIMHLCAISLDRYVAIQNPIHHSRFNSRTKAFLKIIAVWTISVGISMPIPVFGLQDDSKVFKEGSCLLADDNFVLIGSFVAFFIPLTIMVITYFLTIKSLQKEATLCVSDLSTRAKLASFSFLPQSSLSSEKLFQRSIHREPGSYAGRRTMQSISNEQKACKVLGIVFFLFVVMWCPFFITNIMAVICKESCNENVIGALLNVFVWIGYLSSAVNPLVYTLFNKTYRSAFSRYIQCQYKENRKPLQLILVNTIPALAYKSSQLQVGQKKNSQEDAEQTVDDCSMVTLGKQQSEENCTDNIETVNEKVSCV
Experimental: The in-vitro affinity of the compounds of the invention was determined
for 5-HT2 serotoninergic receptors, by measuring the displacement of aminoiodoketanserin, on rat frontal cortex preparations, […]

[2] = set-up: species or system Rats or mice; details: in vivo

| SMILES | IC50 [1] [nM] | other results |
| --- | --- | --- |
| O=C(c1ccc(F)cc1)C1CCN(CCn2c(=O)sc3ccccc32)CC1 [Example 1, 3-{2-[4-(4-FLUOROBENZOYL)PIPERIDINO]ETHYL}BENZOTHIAZOLIN-2-ONE] | 1 | – |
| CN1CC[C@]23c4c5ccc(O)c4O[C@H]2[C@@H](O)C=C[C@H]3[C@H]1C5 [morphine, reference compound] | – | inhibition of reaction time which the animal takes to lick its paws ([2]; ip): 129% |
| Cn1c(=O)sc2cc(CCN3CCC(C(=O)c4ccc(F)cc4)CC3)ccc21 [Example 48, 3-METHYL-6-{2-[4-(4-FLUOROBENZOYL)PIPERIDINO]ETHYL}BENZOTHIAZOLIN-2-ONE] | – | inhibition of reaction time which the animal takes to lick its paws [2]: 175% |
| O=C(c1ccc(F)cc1)C1CCN(CCn2c(=O)sc3cc(CCCCN4CCOCC4)ccc32)CC1 [Example 4, 3-{2-[4-(4-FLUOROBENZOYL)PIPERIDINO]ETHYL}-6-(4-MORPHOLINOBUTYL)BENZOTHIAZOLIN-2-ONE] | 0.5 | – |
| COc1ccccc1N1CCN(CCCCc2ccc3c(c2)sc(=O)n3CCN2CCC(C(=O)c3ccc(F)cc3)CC2)CC1 [Example 3, 3-{2-[4-(4-FLUOROBENZOYL)PIPERIDINO]ETHYL}-6-(4-[4-(2-METHOXY-PHENYL)PIPERAZINYL]BUTYL}BENZOTHIAZOLIN-2-ONE] | 1 | – |
